Source: patent US20090117406A1, “CONCENTRATE FOR FILM PRESERVATION” (priority 2006, published 2009)

Tests used:
[1] = system: Alternaria alternata DSM 62010 and Ulocladium consortial DSM 6201; test: Fungicide trial with weathering on plaster test pieces (VdL guideline 06), fungus mix 1; format: cell-based; details: rating after 21 days 0 or 1, for mixtures order of ppm follows order of active agents
Experimental: (§1) The sample to be tested is plaster. The untreated sample is equipped with the cited biocides or single active agents in different concentrations. […] For preparing the samples the plaster is equipped with biocides and from that test pieces are formed. For that purpose for each test piece 7 g plaster are weighed in a small plastic mould and spread evenly. For complete drying the plaster test pieces are stored for three days at room temperature. The prepared test bodies are put in 100 ml tap water each for three days the water being exchanged daily. Then a 15 h phase of drying follows in a circulation air cabinet at 50° C. and 60 circles/min. After three days of equi libration at room temperature the test pieces are sterilised superficially and brought in the biological test. The superficial sterilisation is carried directly before putting them on the nutritive substratum by a exposure to UV radiation on both sides each for 10 minutes under a mercury medium pressure radiator. The evaluations for fungus are carried out on malt extract agar (for example by Fluka). For mix 1 Alternaria alternata DSM 62010 and Ulocladium consortial DSM 6201 is used. For mix 2 Aspergillus niger DSM 1988, Penicillium expansum DSM 1282 and Trichoderma viride DSM 63064 is used. These are used as about 14 days old cultures on inclined agar tubes for producing suspension. For that purpose to each tube 3 ml sterile Ringer's solution are added, and then washed away with a sterile os (this corresponds with a germination index of about 10^8 to 10^9 KBE/ml [KBE=(Kolonie bildende Einheiten) units forming colonies]). […] The nutritive substratum with the put-on test pieces is injected with one of the listed fungus mixtures and incubated at room temperature. After 7, 14 and 21 days the test pieces are evaluated with respect to the fungus growth according to the following rating: 00=sample surface without fouling, with inhibitory aureole around test piece 0=sample surface without fouling, without inhibitory aureole around test piece […] […]

[2] = system: Aspergillus niger DSM 1988, Penicillium expansum DSM 1282 and Trichoderma viride DSM 63064; test: Fungicide trial with weathering on plaster test pieces (VdL guideline 06), fungus mix 2; format: cell-based; details: rating after 21 days 0 or 1, for mixtures order of ppm follows order of active agents
Experimental: as §1

Row | Structure (SMILES) | ppm a.i. in plaster dosed additionally (minimal ppm concentration as fungus growth is obstructed clearly) [1] [ppm] | ppm a.i. in plaster dosed additionally (minimal ppm concentration as fungus growth is obstructed clearly) [2]
1 | N#Cc1c(Cl)c(Cl)c(Cl)c(C#N)c1Cl [CTL, 1,3-dicyano-2,4,5,6-tetrachlorbenzole] | 400 | 800 ppm
2 | CCCC1COC(Cn2cncn2)(c2ccc(Cl)cc2Cl)O1 (stereo not drawn) [Propiconazol, 1-[[2-(2,4-dichlorphenyl)-4-propyl-1,3-dioxolane-2-yl]methyl] 1 H-1,2,4-triazol] | 2000 | >2000(#) ppm
3 | CCCCCCCCn1sccc1=O [OIT, 2-octyl-2H-isothiazole-3-one] | 200 | >500(#) ppm
